B1: UEA-I: Ulex europaeus-derived lectin (protein)
chain: SDDLSFKFKNFSQNGKDLSFQGDASVIETGVLQLNKVGNNLPDETGGIARYIAPIHIWNCNTGEVASFITSFSFFMETSANPKAATDGLTFFLAPPDSPLRRAGGYFGLFEDTKDNDSSYQTVAVEFDTIGSPVNFDDPGFPHIGIDVNRVKSINAERWNKRYGLNNVANVEIIYEASSKTLTASLTYPSDQTSISVTSIVDLKEILPEWVSVGFSGGTYIGRQATHEVLNWYFTSNLINTNS
B2: Fetuin: fetuin (type III, calf serum) (protein)
chain: IPLDPVAGYKEPACDDPDTEQAALAAVDYINKHLPRGYKHTLNQIDSVKVWPRRPTGEVYDIEIDTLETTCHVLDPTPLANCSVRQQTQHAVEGDCDIHVLKQDGQFSVLFTKCDSSPDSAEDVRKLCPDCPLLAPLNDSRVVHAVEVALATFNAESNGSYLQLVEISRAQFVPLPVSVSVEFAVAATDCIAKEVVDPTKCNLLAEKQYGFCKGSVIQKALGGEDVRVTCTLFQTQPVIPQPQPDGAEAEAPSAVPDAAGPTPSAAGPPVASVVVGPSVVAVPLPLHRAHYDLRHTFSGVASVESSSGEAFHVGKTPIVGQPSIPGGPVRLCPGRIRYFKI
B3: Asialofetuin: asialo form of fetuin (protein)
chain: IPLDPVAGYKEPACDDPDTEQAALAAVDYINKHLPRGYKHTLNQIDSVKVWPRRPTGEVYDIEIDTLETTCHVLDPTPLANCSVRQQTQHAVEGDCDIHVLKQDGQFSVLFTKCDSSPDSAEDVRKLCPDCPLLAPLNDSRVVHAVEVALATFNAESNGSYLQLVEISRAQFVPLPVSVSVEFAVAATDCIAKEVVDPTKCNLLAEKQYGFCKGSVIQKALGGEDVRVTCTLFQTQPVIPQPQPDGAEAEAPSAVPDAAGPTPSAAGPPVASVVVGPSVVAVPLPLHRAHYDLRHTFSGVASVESSSGEAFHVGKTPIVGQPSIPGGPVRLCPGRIRYFKI

Tests used:
[1] = tested on: BML-17; assay: Hemagglutination-inhibition test with BML-17 and trypsin-treated rabbit erythrocytes; assay type: cell-based, Bryopsis maxima; conditions: for Minimum inhibitory concentration: inhibition of BML-17 (agglutination titer 4) agglutination of TRBC; for Inhibition of agglutinating activity of BML-17 (in words): TRBC
Method: Hemagglutinating activity was measured using a micro titer method. Twenty-five μl of serially two-fold dilutions of each purified fraction solution adjusted with saline was placed on a micro titer plate. Each diluted solution was supplemented with 25 μl of a 2% suspension of trypsin-treated rabbit erythrocytes and was gently stirred. The mixture was allowed to stand at room temperature for 1.5 hours and agglutination was observed. Agglutination was evaluated with naked eye. Agglutination of 50% or greater percentage of red blood cells was evaluated as positive. Agglutinating activity was given by agglutination titer, i.e., the protein concentration of maximum diluent showing agglutinating activity.
In this Example, trypsin-treated rabbit red blood cells (TRBC) were used as red blood cells. TRBC was prepared as follows. First, 2 ml of blood was collected from the ear of a rabbit kept in laboratory. The blood sample was washed 3 times with about 50 ml of saline, and was supplemented with 50 ml of saline to obtain a 2% rabbit blood cell suspension. The solution was supplemented with 1/10 volume of 0.5% trypsin in saline, and was allowed to stand at 37° C. for 1.5 hours. The trypsin-treated red blood cells were then washed 3 times with saline, and were supplemented with 45 ml of saline to obtain a 2% suspension of trypsin-treated rabbit erythrocytes (or blood cells) (TRBC).
Hemagglutination-inhibition test was performed according to the following procedure. First, each 25 μl of serially two-fold dilutions of sugar solution in saline was placed on a micro titer plate. The concentration of the original solutions of sugars examined was 100 mM for monosaccharides and oligosaccharides, and 2 mg/ml for glycoproteins. Each solution was mixed with 25 μl of BML-17 solution that had been adjusted to an agglutination titer of 4, and allowed to stand for 1.5 hours at room temperature after gentle stirring. Then, 25 μl of TRBC was added, and the mixture was allowed to stand for 2 hours at room temperature to observe hemagglutination inhibitory capability. The presence or absence of hemagglutination inhibitory capability was determined by naked eye. The test was positive when no hemagglutination occurred in about 100% of the red blood cells.
The hemagglutination inhibition test used D-glucose, D-galactose, D-mannose, N-acetyl-D-glucosamine, N-acetyl-D-galactosamine, D-xylose, L-fucose, fructose, lactose, and raffinose as monosaccharides and oligosaccharides. As glycoproteins, mucin (bovine submaxillary gland) and asialomucin, fetuin (type III, calf serum) and asialofetuin, transferrin (human) and asialotransferrin, α1-acid glycoprotein (human) and alialo-α1-acid glycoprotein, and yeast mannan were used.

[2] = tested on: chicken egg yolk antibody (chicken IgY antibody); assay: Search for lectins that bind to chicken egg yolk antibody by SPR (Biacore 2000); assay type: binding; conditions: chicken IgY immobilized as ligand
Excerpt: Assessment was made as to affinity of the different types of lectins and chicken egg yolk antibody (chicken IgY antibody). Briefly, using Biacore 2000 (BIACORE) that employs the principle of surface plasmon resonance method (hereinafter, “SPR method”), chicken egg yolk antibodies (chicken IgY antibodies) were immobilized as ligands on a sensor chip, and measurements were made according to manuals using each type of lectin solution as an analyte. The SPR technique allows for measurement of specific interactions between biomolecules both quickly and quantitatively, without labeling the biomolecules. According to this technique, the ligands are immobilized on a surface of the sensor chip, which is then supplemented with a solution of substance (analyte) that acts on the ligand. Slight changes in mass caused by the binding and dissociation of the molecules are then detected as changes in SPR signals. The mass change is represented by resonance unit (RU). One thousand RU is equivalent to a change in reflection angle of 0.1° caused by resonance, and it means that the analyte has bound to the ligand at 1 ng/mm^2. The surface of the sensor chip is coated with dextran, and the ligands are immobilized primarily via carboxyl groups that have been introduced into the dextran.
Note that, as permitted, the lectins tested as analytes were selected to have different sugar binding specificity. The chicken egg yolk antibody (chicken IgY antibodies) tested as ligands were obtained by purification from egg yolk, using Eggcellent Chicken IgY Purification Kit (Pierce Chem. Co. USA).

[3] = monosaccharides and oligosaccharides

Row | Molecule | Minimum inhibitory concentration [1, 3] | Inhibition of agglutinating activity of BML-17 (in words) [1] | Minimum inhibitory concentration ([1]; glycoproteins) | other results
1 | C[C@H](O)[C@@H](O)[C@@H](O)[C@H](O)C=O [L-Fucose] | — (No inhibition at 100 mM of mono- or oligosaccharides) |  |  | 
2 | O=C[C@H](O)[C@@H](O)[C@H](O)CO [D-Xylose] | — (No inhibition at 100 mM of mono- or oligosaccharides) |  |  | 
3 | OC[C@H]1O[C@@H](O[C@H]2[C@H](O)[C@@H](O)C(O)O[C@@H]2CO)[C@H](O)[C@@H](O)[C@H]1O (stereo partly drawn) [Lactose] | — (No inhibition at 100 mM of mono- or oligosaccharides) |  |  | 
4 | Transferrin: transferrin (human), glycoprotein |  | inhibition occurred | 2000 µg/mL | 
5 | O=C[C@H](O)[C@@H](O)[C@H](O)[C@H](O)CO [D-Glucose] | — (No inhibition at 100 mM of mono- or oligosaccharides) |  |  | 
6 | OC[C@H]1O[C@H](OC[C@H]2O[C@H](O[C@]3(CO)O[C@H](CO)[C@@H](O)[C@@H]3O)[C@H](O)[C@@H](O)[C@@H]2O)[C@H](O)[C@@H](O)[C@H]1O [Raffinose] | — (No inhibition at 100 mM of mono- or oligosaccharides) |  |  | 
7 | Asialotransferrin: asialo form of transferrin (human) |  | inhibition occurred | 1000 µg/mL | 
8 | O=C(CO)[C@@H](O)[C@H](O)[C@H](O)CO [Fructose] | — (No inhibition at 100 mM of mono- or oligosaccharides) |  |  | 
9 | Mucin |  | inhibition occurred | 250 µg/mL | 
10 | O=C[C@H](O)[C@@H](O)[C@@H](O)[C@H](O)CO [D-Galactose] | — (No inhibition at 100 mM of mono- or oligosaccharides) |  |  | 
11 | αl-Acid glycoprotein: α1-acid glycoprotein (human) |  |  | — (No inhibition at 100 mM of mono- or oligosaccharides, or at 2 mg/ml of glycoproteins) | 
12 | CC(=O)N[C@H]1C(O)O[C@H](CO)[C@H](O)[C@@H]1O (stereo partly drawn) [N-Acetyl-D-galactosamine] | — (No inhibition at 100 mM of mono- or oligosaccharides) |  |  | 
13 | CC(=O)N[C@H]1C(O)O[C@H](CO)[C@@H](O)[C@@H]1O (stereo partly drawn) [N-Acetyl-D-glucosamine] | — (No inhibition at 100 mM of mono- or oligosaccharides) |  |  | 
14 | B1 |  |  |  | Binding to chicken egg yolk antibody (in words) [2]: binding to chicken egg yolk antibody (chicken IgY antibodies) occurs
15 | B2 |  | inhibition occurred | 1000 µg/mL | 
16 | B3 |  | inhibition occurred | 500 µg/mL | 

— US7867732B2, “Isolated polypeptide binding to a sugar chain, polynucleotide encoding the polypeptide and use of the polypeptide and polynucleotide” (National University of Corporation Hiroshima University, priority 2005, dated 2011)
